# Earlier results as cited in patent EP4741436A1, “POLYMERIZABLE COMPOSITION FOR OPTICAL MATERIAL, POLYMERIZABLE PREPOLYMER COMPOSITION FOR OPTICAL MATERIAL, CURED ARTICLE, AND METHOD FOR PRODUCING OPTICAL MATERIAL” (Mitsui Chemicals, Inc., priority 2023, dated 2025).
# Where two headings read alike, the source gives them in different places.
# Conditions: for pKa: organic acids and basic polymerization catalysts, values given in text
Structure (SMILES),pKa,pKa of Organic Acid (organic acid used in the composition of the column),pKa (listed as (±)-10-camphorsulfonic acid)
CCCCS(=O)(=O)O [butanesulfonic acid],1.9,–,–
O=S(=O)(O)c1ccccc1 [benzenesulfonic acid],0.7,–,–
C=CS(=O)(=O)O [vinylsulfonic acid],-2.7,–,–
CCCS(=O)(=O)O [propanesulfonic acid],1.9,–,–
CCS(=O)(=O)O [ethanesulfonic acid],1.8,–,–
"CC1(C)C2CCC1(CS(=O)(=O)O)C(=O)C2 (racemic) [10-camphorsulfonic acid, (±)-10-camphorsulfonic acid]",1.2,1.17,1.17
